Source: PubChem BioAssay AID588780 (Sanford-Burnham Center for Chemical Genomics, 2011)
pIC50: −log10 of the molar value. Calls of active or inactive are those of the source.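 Rule for the calls: active = compounds whose fitted half-maximal concentration in the cell-protection dose series is at or below a set limit; inactive = the rest.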

These compounds were tested on H9c2 cardiomyocytes, 2-deoxyglucose stress, ATP luminescence, 2 h (assay: protection of cardiomyocytes from 2-deoxyglucose injury, dose response, cell-based, 2-deoxyglucose stress, uHTS hits (AID 588780)).
With `CC(=O)N1CCN(C(=O)CCc2nc3ccccc3c(=O)[nH]2)CC1` the IC50 was > 79 µM (inactive). Compound `CCCc1cc(N2CCN(C(=O)c3ccco3)CC2)n2c(nc3ccccc32)c1C#N` has a pIC50 of 4.67. For `c1ccc(-c2nn3c(-c4ccco4)nnc3s2)nc1`, the IC50 was 43.9 µM (inactive). With `CCOc1ccccc1C(=O)N/N=C/c1cccc2cccnc12` the IC50 was > 79 µM (inactive). In the case of `COc1ccc(/C=N/NC(=O)c2cc(-c3ccc4c(c3)OCO4)n[nH]2)cc1OC`, the IC50 was > 79 µM (inactive). In the case of `COC(=O)c1cccc(Nc2nc(-c3cccnc3)nc3ccccc23)c1`, the IC50 was > 79 µM (inactive). `COc1cccc(OC)c1C(=O)Nc1ccc(Br)c(C(=O)c2ccccc2)c1` gave a pIC50 of 4.97. In the case of `CCN(C[C@H]1N[C@@](CC)(C(=O)OC)[C@H]2C(=O)N(Cc3ccccc3)C(=O)[C@@H]12)C(=O)c1ccc(C(C)(C)C)cc1`, the IC50 was > 79 µM (inactive). `O=C1N[C@H]2CC=C[C@H]2Nc2ccccc21` was tested, and the IC50 was > 79 µM (inactive). For `O=C(CSC1=NNC(c2ccccn2)S1)Nc1cccc(Cl)c1` (stereo not drawn), the IC50 was > 79 µM (inactive). In the case of `CCOC(=O)Cc1c(C)nc2c(-c3ccc(Cl)cc3)c[nH]n2c1=O`, the IC50 was > 79 µM (inactive). `Cc1ccc(C(=O)N/N=C\c2ccc(-c3ccc(Cl)cc3)o2)cn1` gave a pIC50 of 5.03. In the case of `O=C(COc1cccc2c1CCNC2=O)NC1CCCCC1`, the IC50 was > 79 µM (inactive). For `O=C(/C=C\c1cn(-c2ccccc2)nc1-c1ccc2c(c1)OCCO2)N1CCOCC1`, the IC50 was > 79 µM (inactive). With `O=C(CCc1nc2ccccc2c(=O)[nH]1)NCc1ccco1` the IC50 was > 79 µM (inactive). In the case of `O=C(Nc1cc(S(=O)(=O)N2CCOCC2)ccc1N1CCCCC1)c1cc(-c2ccccn2)nc2ccccc12`, the IC50 was > 79 µM (inactive). Work on `CC(=O)c1cccc(-c2cnc3c(NC=O)cc(-c4ccccc4F)cn23)c1` yielded a pIC50 of 4.75. In the case of `COc1ccccc1OCC(=O)Nc1sc2c(c1C(=O)NCC1CCCO1)CCC2` (stereo not drawn), the IC50 was > 79 µM (inactive). In the case of `COc1cc(NC(=O)c2c(OC)cccc2OC)ccc1NC(=O)c1cc2ccccc2o1`, the pIC50 was 4.90. For `O=C(COC(=O)c1ccc([N+](=O)[O-])o1)Nc1ccc(N2CCOCC2)cc1`, the IC50 was > 79 µM (inactive). `CCn1cc(C(=O)Nc2cccc(NC(C)=O)c2)c2cc(OC)c(OC)cc2c1=O` was tested, and the IC50 was > 79 µM (inactive). `O=C(N/N=C/c1ccncc1)c1ccc(COc2cccc3cccnc23)cc1` was tested, and the IC50 was > 79 µM (inactive). For `CCOC(=O)C1=C(C)NC(C)=C(C(=O)OCC)C1C(=O)OCC(=O)NC(C)C`, the pIC50 was 4.70. For `O=C(CCc1nc2ccccc2c(=O)[nH]1)NNC(=O)c1cccc(Cl)c1`, the IC50 was > 79 µM (inactive). In the case of `NS(=O)(=O)c1cccc(NC(=O)COC(=O)Cc2n[nH]c(=O)c3ccccc23)c1`, the IC50 was > 79 µM (inactive). With `O=c1[nH]c2cc3c(cc2cc1CN(Cc1nnnn1CC1CCCO1)C1CCCCC1)OCO3` (stereo not drawn) the IC50 was 57.1 µM (inactive). In the case of `O=C(CN1CCN(c2ccccn2)CC1)Nc1ccc([N+](=O)[O-])cc1C(=O)Nc1ccccc1F`, the pIC50 was 4.95. `CC(=O)c1ccc(C(=O)Nc2nnc(-c3ccc(Cl)cc3)o2)cc1` showed a pIC50 of 4.81. Work on `CC(=O)Nc1cc(-c2cccc(C(=O)N(C)C)c2)cn2c(-c3ccc(C(C)=O)cc3)cnc12` yielded a pIC50 of 4.82. In the case of `COc1ccc(-c2cc(C(=O)Nc3ccccc3N3CCOCC3)c3ccccc3n2)cc1OC`, the IC50 was > 79 µM (inactive). With `COc1ccc(CCn2c(=N)c(C(=O)NCC3CCCO3)cc3c(=O)n4cccc(C)c4nc32)cc1OC` (stereo not drawn) the IC50 was 58 µM (inactive). `CC(C)(C)NC(=O)c1cccc(NC(=O)c2ccc(NC(=O)c3ccco3)cc2)c1` gave a pIC50 of 4.81. For `CCN(CC)C(=O)c1ccc(-c2nnc(Nc3ccc(O)cc3)c3ccccc23)cc1`, the IC50 was 71.4 µM (inactive). Compound `Cc1cccc(-n2c(SCc3cc(=O)n4ccsc4n3)nc3ccccc3c2=O)c1` has a pIC50 of 4.85. In the case of `COc1cc(/C=N\NC(=O)c2cccnc2)ccc1OC(=O)c1ccccc1Cl`, the IC50 was > 79 µM (inactive). `COc1ccccc1NC(=O)COc1ccc(C(=O)OCC(=O)NC(C)(C)C)cc1OC` gave a pIC50 of 4.76. `COc1cccc(/C=N/NC(=O)c2[nH]c(C)c(C(=O)N/N=C/c3cccc(OC)c3)c2C)c1` showed a pIC50 of 4.93. With `O=C(COC(=O)c1ccc([N+](=O)[O-])o1)Nc1cccc(S(=O)(=O)N2CCCCC2)c1` the IC50 was > 79 µM (inactive). `CCn1c(=O)cc(OCC(=O)Nc2ccccc2C#N)c2ccccc21` was tested, and the IC50 was > 79 µM (inactive). `C[C@H](CO)N1C[C@H](C)[C@@H](CN(C)C(=O)Nc2ccc3c(c2)OCO3)Oc2c(NC(=O)Nc3ccc(C(F)(F)F)cc3)cccc2C1=O` was tested, and the IC50 was > 79 µM (inactive). With `Oc1ccc(Cl)cc1C=Nc1ccc(Br)cc1` the IC50 was > 79 µM (inactive). With `CN(C(=O)CCc1nc2ccccc2c(=O)[nH]1)C1CCS(=O)(=O)C1` (stereo not drawn) the IC50 was > 79 µM (inactive). With `CC/C(C)=N\N=C\c1c(O)n(CC)c2cc(C3=NNC(=O)CC3)ccc12` the IC50 was 32.4 µM (inactive). With `CN(C)C(=O)C1C2NC(=S)N(c3cccc(Cl)c3)C1(C)Oc1ccc(Cl)cc12` (stereo not drawn) the IC50 was 66.7 µM (inactive). In the case of `O=C(NNC(=O)c1cc2cc(Br)ccc2oc1=O)c1ccc(O)cc1O`, the IC50 was 31.7 µM (inactive). For `COc1ccc(-c2cc(-c3nnc(COC(=O)C4CC4C)o3)c3ccccc3n2)cc1OC` (stereo not drawn), the IC50 was > 79 µM (inactive). In the case of `CCCC(c1nnnn1C(C)(C)CC)N(CCCO)Cc1cc2cc(C)cc(C)c2[nH]c1=O` (stereo not drawn), the IC50 was > 79 µM (inactive). For `Cc1cccc(N=Cc2cc(Br)cc(Cl)c2O)c1`, the IC50 was 39.6 µM (inactive). For `Brc1cc2c(cc1/C=N/Nc1nc(N3CCCC3)nc(N3CCOCC3)n1)OCO2`, the IC50 was > 79 µM (inactive). For `C=CCC[C@H](Cc1ccc(F)cc1)C(=O)OC[C@@H](Cc1c[nH]c2ccccc12)NC(=O)[C@@H](CC=C)CC(=O)NCCO`, the IC50 was > 79 µM (inactive). For `COc1ccc(-c2cc(=O)oc3c(C)c(O)c(CN(C)C)cc23)cc1`, the IC50 was > 79 µM (inactive). Work on `COc1ccc(/C=N/NC(=O)c2cccnc2)cc1CSc1nc2ccccc2s1` yielded a pIC50 of 4.91. `CCOC(=O)Cn1c(=NC(=O)c2cc(-c3cccs3)nc3ccccc23)sc2cc(S(N)(=O)=O)ccc21` was tested, and the IC50 was > 79 µM (inactive). For `COc1cccc(-c2cnc3c(NC=O)cc(-c4cccc(NC(C)=O)c4)cn23)c1`, the IC50 was > 79 µM (inactive). `Cc1c(O)ccc2c(-c3ccccc3)cc(=O)oc12` showed a pIC50 of 4.61. For `Cc1ccc2c(C)nc(Nc3nc(CSc4nc5ccccc5[nH]4)cc(=O)[nH]3)nc2c1`, the IC50 was > 79 µM (inactive). In the case of `O=C(Nc1nc(-c2cc(F)ccc2F)cs1)C1=NN(c2ccccc2)C(=O)CC1`, the IC50 was > 79 µM (inactive). `COc1cc(-c2cc(C(=O)NCc3ccco3)c3ccccc3n2)cc(OC)c1OC` was tested, and the pIC50 was 4.78. With `CC1(C)CC(=O)C2=C(C1)N(CCN1CCOCC1)C1=C(C(=O)CC(C)(C)C1)C2c1ccc(Cl)cc1` the IC50 was 31.3 µM (inactive). For `CCc1cc2cccc(C)c2nc1SCC(=O)N1CCN(C(=O)c2ccco2)CC1`, the IC50 was > 79 µM (inactive). With `O=C(NCCc1ccc(F)cc1)C(=O)Nc1cc2c3c(c1)CC(=O)N3CCC2` the pIC50 was 4.57. With `O=C(CSc1nc2ccccc2c(=O)[nH]1)c1ccccc1` the IC50 was > 79 µM (inactive). For `CSc1nnc(NC(=O)c2cc3ccccc3oc2=O)s1`, the IC50 was > 79 µM (inactive). In the case of `COc1ccc2oc(C(=O)Nc3ccc(N4CCOCC4)cc3)c(C)c2c1`, the IC50 was > 79 µM (inactive). For `CCN(C[C@H]1N[C@@](Cc2ccccc2)(C(=O)OC)[C@H]2C(=O)N(C)C(=O)[C@@H]12)S(=O)(=O)c1ccc(OC)cc1`, the IC50 was 37.2 µM (inactive). `COC(=O)c1ccc(C(NC(=O)OCc2ccccc2)/C(C)=C/[C@@H](C)C(=O)NCc2ccc(OC)c(OC)c2)cc1` (stereo partly drawn) gave a pIC50 of 4.64. For `Cc1c(C2Nc3ccccc3C(=O)N2O)cnn1C` (stereo not drawn), the pIC50 was 4.84. For `O=C(Nc1ccc2oc(-c3ccccc3F)nc2c1)c1ccc([N+](=O)[O-])o1`, the IC50 was > 79 µM (inactive). `COc1ccc(C(=O)O/N=C(/c2ccccc2)c2ccncc2)cc1OC` was tested, and the IC50 was > 79 µM (inactive). With `Cc1ccc(-c2n[nH]c(=O)c3ccccc23)cc1N` the pIC50 was 4.76. With `Cc1cccc(NC(=O)c2nc[nH]c2C(=O)NCCCNC(=O)c2[nH]cnc2C(=O)Nc2cccc(C)c2)c1` the IC50 was 31.6 µM (inactive). In the case of `Cc1ccc(OCC(=O)NCc2n[nH]c(=O)c3ccccc23)cc1`, the IC50 was > 79 µM (inactive). Compound `COc1cc(/C=N/NC(=O)c2ccccc2)ccc1OS(=O)(=O)c1ccccc1` has a pIC50 of 5.04. In the case of `COc1ccc(-n2c(/C=C/c3ccc(O)c(OC)c3)nc3ccccc3c2=O)cc1`, the IC50 was > 79 µM (inactive). For `O=C(CCc1nc2ccccc2c(=O)[nH]1)OCc1nnc(-c2ccccc2)o1`, the IC50 was > 79 µM (inactive). `Cc1ccc(C(=O)Nc2cccc(C(F)(F)F)c2)cc1NC(=O)c1csc(-c2ccncc2)n1` was tested, and the IC50 was > 79 µM (inactive). In the case of `Cc1cc(C)nc(SCc2ccc(C(=O)N/N=C/c3ccccn3)cc2)n1`, the IC50 was > 79 µM (inactive). In the case of `Cn1ncc(Cl)c1C(=O)N/N=C/c1ccccn1`, the IC50 was > 79 µM (inactive). With `Nc1ccc2c(c1)[nH]c(=O)c1ccccc12` the IC50 was > 79 µM (inactive). `CC(C)(C)OC(=O)CNC(=O)c1[nH]cnc1C(=O)NC(c1ccccc1)c1ccccc1` gave a pIC50 of 4.72. For `CCCn1c(=O)c(C(=O)Nc2ccccc2)c(O)c2ccccc21`, the IC50 was > 79 µM (inactive). For `O=C(NNC(=O)C(c1ccccc1)c1ccccc1)c1ccccn1`, the IC50 was > 79 µM (inactive). For `C[C@@H]1CN([C@H](C)CO)S(=O)(=O)c2ccc(C#Cc3ccccc3F)cc2O[C@H]1CN(C)C(=O)c1ccc2c(c1)OCO2`, the IC50 was > 79 µM (inactive). `O=C1OCCN1C(=O)[C@H]1[C@H](c2ccc([N+](=O)[O-])cc2)C(c2ccc(F)cc2)=NN1c1ccc(Br)cc1` gave a pIC50 of 5.22. `Cc1ccc2[nH]c(=O)c(CN(CCCN3CCOCC3)C(=O)Nc3ccc(Cl)cc3)cc2c1` was tested, and the IC50 was > 79 µM (inactive). With `COc1cc(OC)cc(-c2cc3nc(C)c(CCC(=O)Nc4nc(C)cs4)c(C)n3n2)c1` the IC50 was > 79 µM (inactive). In the case of `CCOc1cccc(-c2nn3c(-c4ccco4)nnc3s2)c1`, the pIC50 was 4.65. Compound `CCn1c(SCC(=O)Nc2ccccc2N2CCCCC2)nc2c1c(=O)n(C)c(=O)n2C` has a pIC50 of 4.90. With `NC(=O)c1cccc(-c2coc3c(C(=O)NCCc4ccccc4)cccc23)c1` the IC50 was > 79 µM (inactive). In the case of `CC(=O)Nc1cccc(-c2cc(NC(C)=O)c3ncc(-c4ccccc4)n3c2)c1`, the pIC50 was 4.89. With `COc1cc(OC)c(-c2nn3c(-c4ccco4)nnc3s2)cc1OC` the pIC50 was 5.18. In the case of `CSCCC(NS(=O)(=O)c1ccccc1)C(=O)OCc1cc(=O)oc2cc(O)ccc12` (stereo not drawn), the IC50 was > 79 µM (inactive). In the case of `O=C(N/N=C/c1cn(-c2ccccc2)nc1-c1cccnc1)c1ccccc1`, the pIC50 was 4.89.
